Laboratory results published in patent publication US10004701B2, “Methods and compositions for treating infection” (UNIVERSITY OF ROCHESTER, priority 2012, dated 2018).
Where a name gives a salt, the structure may show the parent alone. Read-outs that look alike come from different tables or passages of the source.

Columns and labels:
Experiment in all cases: AK assay 384-well format, Prestwick library screening
E. faecium = assay type: cell-based, Enterococcus faecium; settings: 50 μM final drug concentration; for fold induction at 50 µM: Enterococcus faecium, 3 h
[1] = test system: S. aureus strain USA300-0114; assay type: cell-based, Staphylococcus aureus; settings: 50 μM final drug concentration; for fold induction at 50 µM: Staphylococcus aureus, USA300, 3 h
K. pneumoniae = assay type: cell-based, Klebsiella pneumoniae; settings: 50 μM final drug concentration; for fold induction at 50 µM: Klebsiella pneumoniae, 3 h
[2] = test system: A. baumannii strain 98-37-09; assay type: cell-based, Acinetobacter baumannii; settings: 50 μM final drug concentration; for fold induction at 50 µM: Acinetobacter baumannii, 983709, 3 h
P. aeruginosa = assay type: cell-based, Pseudomonas aeruginosa; settings: 50 μM final drug concentration; for fold induction at 50 µM: Pseudomonas aeruginosa, 3 h
E. coli = assay type: cell-based, Escherichia coli; settings: 50 μM final drug concentration; for fold induction at 50 µM: Escherichia coli, 3 h
E. cloacae = assay type: cell-based, Enterobacter cloacae; settings: 50 μM final drug concentration; for fold induction at 50 µM: Enterobacter cloacae, 3 h
[3] = planktonic, […], read-out: AK-based Prestwick Library Screening Results, E. faecium (fold increase in extracellular AK activity)
[4] = planktonic, […], read-out: AK-based Prestwick Library Screening Results, S. aureus (fold increase in extracellular AK activity)
[5] = planktonic, […], read-out: AK-based Prestwick Library Screening Results, K. pneumoniae (fold increase in extracellular AK activity)
[6] = planktonic, […], read-out: AK-based Prestwick Library Screening Results, A. baumannii (fold increase in extracellular AK activity)
[7] = planktonic, […], read-out: AK-based Prestwick Library Screening Results, P. aeruginosa (fold increase in extracellular AK activity)
[8] = planktonic, […], read-out: AK-based Prestwick Library Screening Results, E. coli (fold increase in extracellular AK activity)
[9] = planktonic, […], read-out: AK-based Prestwick Library Screening Results, E. cloacae (fold increase in extracellular AK activity)

## C[n+]1cccc(C(=O)[O-])c1 [Trigonelline]
E. faecium; planktonic E. faecium, cutoff for positive-scoring molecules 3-fold increase, read-out: AK-based Prestwick Library Screening Results, E. faecium (increase in extracellular AK activity)
  fold induction at 50 µM: 0.9
[1]; planktonic S. aureus, cutoff for positive-scoring molecules 3-fold increase, read-out: AK-based Prestwick Library Screening Results, S. aureus (increase in extracellular AK activity)
  fold induction at 50 µM: 0.8
K. pneumoniae; planktonic K. pneumoniae, cutoff for positive-scoring molecules 3-fold increase, read-out: AK-based Prestwick Library Screening Results, K. pneumoniae (increase in extracellular AK activity)
  fold induction at 50 µM: 0.7
[2]; planktonic A. baumannii, cutoff for positive-scoring molecules 3-fold increase, read-out: AK-based Prestwick Library Screening Results, A. baumannii (increase in extracellular AK activity)
  fold induction at 50 µM: 0.9
P. aeruginosa; planktonic P. aeruginosa, cutoff for positive-scoring molecules 3-fold increase, read-out: AK-based Prestwick Library Screening Results, P. aeruginosa (increase in extracellular AK activity)
  fold induction at 50 µM: 0.8
E. coli; planktonic E. coli, cutoff for positive-scoring molecules 3-fold increase, read-out: AK-based Prestwick Library Screening Results, E. coli (increase in extracellular AK activity)
  fold induction at 50 µM: 0.9
E. cloacae; planktonic E. cloacae, cutoff for positive-scoring molecules 3-fold increase, read-out: AK-based Prestwick Library Screening Results, E. cloacae (increase in extracellular AK activity)
  fold induction at 50 µM: 1.2

## C=CCOc1ccccc1OCC(O)CNC(C)C (stereo not drawn) [Oxprenolol hydrochloride]
E. faecium; planktonic E. faecium, positive cutoff 3-fold increase, read-out: AK-based Prestwick library screening result, E. faecium (fold increase in extracellular AK activity)
  fold induction at 50 µM: 0.9
[1]; planktonic S. aureus, positive cutoff 3-fold increase, read-out: AK-based Prestwick library screening result, S. aureus (fold increase in extracellular AK activity)
  fold induction at 50 µM: 0.6
K. pneumoniae; planktonic K. pneumoniae, positive cutoff 3-fold increase, read-out: AK-based Prestwick library screening result, K. pneumoniae (fold increase in extracellular AK activity)
  fold induction at 50 µM: 0.6
[2]; planktonic A. baumannii, positive cutoff 3-fold increase, read-out: AK-based Prestwick library screening result, A. baumannii (fold increase in extracellular AK activity)
  fold induction at 50 µM: 0.6
P. aeruginosa; planktonic P. aeruginosa, positive cutoff 3-fold increase, read-out: AK-based Prestwick library screening result, P. aeruginosa (fold increase in extracellular AK activity)
  fold induction at 50 µM: 0.6
E. coli; planktonic E. coli, positive cutoff 3-fold increase, read-out: AK-based Prestwick library screening result, E. coli (fold increase in extracellular AK activity)
  fold induction at 50 µM: 0.7
E. cloacae; planktonic E. cloacae, positive cutoff 3-fold increase, read-out: AK-based Prestwick library screening result, E. cloacae (fold increase in extracellular AK activity)
  fold induction at 50 µM: 0.9

## CC(=O)O[C@H]1CC[C@@]2(C)C(=CC[C@@H]3[C@@H]2CC[C@]2(C)C(=O)CC[C@@H]32)C1 [Dehydroisoandosterone 3-acetate]
E. faecium; […]
  AK-based Prestwick Library Screening Results, E. faecium (fold increase in extracellular AK activity): 1.1
[1]; […]
  AK-based Prestwick Library Screening Results, S. aureus (fold increase in extracellular AK activity): 0.8
K. pneumoniae; […]
  AK-based Prestwick Library Screening Results, K. pneumoniae (fold increase in extracellular AK activity): 0.9
[2]; […]
  AK-based Prestwick Library Screening Results, A. baumannii (fold increase in extracellular AK activity): 1.1
P. aeruginosa; […]
  AK-based Prestwick Library Screening Results, P. aeruginosa (fold increase in extracellular AK activity): 1.1
E. coli; […]
  AK-based Prestwick Library Screening Results, E. coli (fold increase in extracellular AK activity): 1.0
E. cloacae; […]
  AK-based Prestwick Library Screening Results, E. cloacae (fold increase in extracellular AK activity): 1.7

## CCCCN(CCCC)CCCOC(=O)c1ccc(N)cc1 [Butacaine]
E. faecium; planktonic, cutoff for positive-scoring molecules 3-fold increase, read-out: AK-based Prestwick Library Screening Results, E. faecium (fold increase in extracellular AK activity)
  fold induction at 50 µM: 0.9
[1]; planktonic, cutoff for positive-scoring molecules 3-fold increase, read-out: AK-based Prestwick Library Screening Results, S. aureus (fold increase in extracellular AK activity)
  fold induction at 50 µM: 0.8
K. pneumoniae; planktonic, cutoff for positive-scoring molecules 3-fold increase, read-out: AK-based Prestwick Library Screening Results, K. pneumoniae (fold increase in extracellular AK activity)
  fold induction at 50 µM: 0.8
[2]; planktonic, cutoff for positive-scoring molecules 3-fold increase, read-out: AK-based Prestwick Library Screening Results, A. baumannii (fold increase in extracellular AK activity)
  fold induction at 50 µM: 0.9
P. aeruginosa; planktonic, cutoff for positive-scoring molecules 3-fold increase, read-out: AK-based Prestwick Library Screening Results, P. aeruginosa (fold increase in extracellular AK activity)
  fold induction at 50 µM: 1
E. coli; planktonic, cutoff for positive-scoring molecules 3-fold increase, read-out: AK-based Prestwick Library Screening Results, E. coli (fold increase in extracellular AK activity)
  fold induction at 50 µM: 0.9
E. cloacae; planktonic, cutoff for positive-scoring molecules 3-fold increase, read-out: AK-based Prestwick Library Screening Results, E. cloacae (fold increase in extracellular AK activity)
  fold induction at 50 µM: 1.4

## NC(Cn1ccc(=O)c(O)c1)C(=O)O (stereo not drawn) [Mimosine]
E. faecium; planktonic, cutoff for positive 3-fold increase, read-out: AK-based Prestwick Library Screening Results, E. faecium (fold increase in extracellular AK activity)
  fold induction at 50 µM: 1
[1]; planktonic, cutoff for positive 3-fold increase, read-out: AK-based Prestwick Library Screening Results, S. aureus (fold increase in extracellular AK activity)
  fold induction at 50 µM: 1.4
K. pneumoniae; planktonic, cutoff for positive 3-fold increase, read-out: AK-based Prestwick Library Screening Results, K. pneumoniae (fold increase in extracellular AK activity)
  fold induction at 50 µM: 0.9
[2]; planktonic, cutoff for positive 3-fold increase, read-out: AK-based Prestwick Library Screening Results, A. baumannii (fold increase in extracellular AK activity)
  fold induction at 50 µM: 0.9
P. aeruginosa; planktonic, cutoff for positive 3-fold increase, read-out: AK-based Prestwick Library Screening Results, P. aeruginosa (fold increase in extracellular AK activity)
  fold induction at 50 µM: 1.1
E. coli; planktonic, cutoff for positive 3-fold increase, read-out: AK-based Prestwick Library Screening Results, E. coli (fold increase in extracellular AK activity)
  fold induction at 50 µM: 1
E. cloacae; planktonic, cutoff for positive 3-fold increase, read-out: AK-based Prestwick Library Screening Results, E. cloacae (fold increase in extracellular AK activity)
  fold induction at 50 µM: 1.5

## COc1ccc2c(OC)c3ccoc3nc2c1OC [Skimmianine]
E. faecium; [3]
  fold induction at 50 µM: 0.6
[1]; [4]
  fold induction at 50 µM: 0.6
K. pneumoniae; [5]
  fold induction at 50 µM: 0.5
[2]; [6]
  fold induction at 50 µM: 0.5
P. aeruginosa; [7]
  fold induction at 50 µM: 0.6
E. coli; [8]
  fold induction at 50 µM: 0.6
E. cloacae; [9]
  fold induction at 50 µM: 1.1

## CCN(CC)CCNC(=O)c1cc(Br)c(N)cc1OC [Bromopride]
E. faecium; cutoff for positive-scoring molecules 3-fold increase, read-out: AK-based Prestwick Library Screening Results, E. faecium (fold increase in extracellular AK activity)
  fold induction at 50 µM: 0.9
[1]; cutoff for positive-scoring molecules 3-fold increase, read-out: AK-based Prestwick Library Screening Results, S. aureus (fold increase in extracellular AK activity)
  fold induction at 50 µM: 1.3
K. pneumoniae; cutoff for positive-scoring molecules 3-fold increase, read-out: AK-based Prestwick Library Screening Results, K. pneumoniae (fold increase in extracellular AK activity)
  fold induction at 50 µM: 1
[2]; cutoff for positive-scoring molecules 3-fold increase, read-out: AK-based Prestwick Library Screening Results, A. baumannii (fold increase in extracellular AK activity)
  fold induction at 50 µM: 1.3
P. aeruginosa; cutoff for positive-scoring molecules 3-fold increase, read-out: AK-based Prestwick Library Screening Results, P. aeruginosa (fold increase in extracellular AK activity)
  fold induction at 50 µM: 1.1
E. coli; cutoff for positive-scoring molecules 3-fold increase, read-out: AK-based Prestwick Library Screening Results, E. coli (fold increase in extracellular AK activity)
  fold induction at 50 µM: 1.3
E. cloacae; cutoff for positive-scoring molecules 3-fold increase, read-out: AK-based Prestwick Library Screening Results, E. cloacae (fold increase in extracellular AK activity)
  fold induction at 50 µM: 1.3

## CCCc1ncc(C[n+]2ccccc2C)c(N)n1 [Amprolium hydrochloride]
E. faecium; 384-well format, cutoff for positive-scoring molecules 3-fold increase, read-out: AK-based Prestwick Library Screening Results, E. faecium (increase in extracellular AK activity)
  fold induction at 50 µM: 0.9
[1]; 384-well format, cutoff for positive-scoring molecules 3-fold increase, read-out: AK-based Prestwick Library Screening Results, S. aureus (increase in extracellular AK activity)
  fold induction at 50 µM: 0.5
K. pneumoniae; 384-well format, cutoff for positive-scoring molecules 3-fold increase, read-out: AK-based Prestwick Library Screening Results, K. pneumoniae (increase in extracellular AK activity)
  fold induction at 50 µM: 0.6
[2]; 384-well format, cutoff for positive-scoring molecules 3-fold increase, read-out: AK-based Prestwick Library Screening Results, A. baumannii (increase in extracellular AK activity)
  fold induction at 50 µM: 0.5
P. aeruginosa; 384-well format, cutoff for positive-scoring molecules 3-fold increase, read-out: AK-based Prestwick Library Screening Results, P. aeruginosa (increase in extracellular AK activity)
  fold induction at 50 µM: 0.4
E. coli; 384-well format, cutoff for positive-scoring molecules 3-fold increase, read-out: AK-based Prestwick Library Screening Results, E. coli (increase in extracellular AK activity)
  fold induction at 50 µM: 0.5
E. cloacae; 384-well format, cutoff for positive-scoring molecules 3-fold increase, read-out: AK-based Prestwick Library Screening Results, E. cloacae (increase in extracellular AK activity)
  fold induction at 50 µM: 0.4

## CC[C@@H](CO)NC(=O)[C@@H]1C=C2c3cccc4[nH]cc(c34)C[C@H]2N(C)C1 [Methylergometrine maleate]
E. faecium; [3]
  fold induction at 50 µM: 0.9
[1]; [4]
  fold induction at 50 µM: 0.8
K. pneumoniae; [5]
  fold induction at 50 µM: 1
[2]; [6]
  fold induction at 50 µM: 0.9
P. aeruginosa; [7]
  fold induction at 50 µM: 0.9
E. coli; [8]
  fold induction at 50 µM: 1
E. cloacae; [9]
  fold induction at 50 µM: 1.6
